Values joined by “and” are separate entries in the source; they are usually repeats but may differ in a detail not shown here. Equal entries are not always repeated.
Experiments:
Src = Src (Homo sapiens, UniProt P12931); test: c-Src Kinase Assay (ELISA); assay type: biochemical
Experimental: Inhibitors of Src (partially purified preparation purchased from Upstate Biotechnologies) tyrosine kinase activity are analyzed in an ELISA format. […] Horseradish Peroxidase (HRP)-conjugated anti-phosphotyrosine is used to detect phosphorylated peptide via a color reaction. Conditions recommended by the manufacturer are employed.
Reaction conditions: Five microliter aliquots of each compound prepared fresh at the time of the assay are added as a solution in lOmM HEPES pH 7.5, 10% DMSO to the reaction well. Thirty-five microliters of reaction mix containing Src, buffer and peptide/bovine serum albumin mix are added to the compound wells and incubated at 30° C. for 10 minutes (reaction buffer: 5 OmM TrisHCI pH 7.5, l0 mM MgCl2, O.lmM EGTA, 0.5 mM Na3 VO4)-1H-. The reaction is started by addition of 10 microliters of ATP, incubated at 30° C. for 1 hour, and stopped by addition of 20 microliters of 0.5 M EDTA. The reaction mixture with the phosphorylated peptide is then transferred to a streptavidin-coated microtiter plate (provided in the kit) and allowed to bind for 20 minutes. IUnbound peptide and reaction mixture is decanted and the plate is washed with PBS six times. HRP-conjugated phosphotyrosine antibody supplied in the kit is incubated with the plate for one hour, then decanted. The plate is again washed with PBS six times.
Activity is determined as % inhibition as calculated by the formula: (1−Abs/Abs(max) ) ×100=% inhibition.

[1] = molecular target: Rat2 fibroblasts stably transformed with v-Src/Hu c-Src fusion gene (Homo sapiens, UniProt P12931, cells depend on it, form not given); test: Anchorage Independent Src-transformed Fibroblast Proliferation Assay; assay type: cell-based, Rat; settings: suspension growth, MTS reagent on Day 5; read-out: anch-indep src-tx fib IC50
Experimental: Anchorage Independent Src-transformed Fibroblast Proliferation Assay
Rat2 fibroblasts stably transformed with a plasmid containing a CMV promotor controlled v-Src/Hu c-Src fusion gene in which the catalytic domain of human c-Src was inserted in place of the v-Src catalytic domain in the v-Src gene are used for the measurement of src dependent suspension growth. […] Multiple entries for a given compound indicate that it was tested multiple times.

Raf1 (c-Raf) = molecular target: T1, Raf1 (c-Raf) (Homo sapiens, UniProt P04049); test: Raf1 Kinase Cascade Assay; assay type: biochemical
T1 construct: Sf9 insect cell lysate containing full length 6 his-tagged recombinant human c—Raf; 6His; host or cells: Sf9 insect cells (c-Raf, used as lysate); E. coli (GST-MEK1, GST-MAPK)
Experimental: Raf1 Kinase Cascade Assay Procedure
(Specific Activity: ˜200 U/ml). Human Non-active Mek-1—GST and human GST-MAP kinase (recombinant proteins produced in E. coli).
Stock Solutions Raf Assay:
Assay Dilution Buffer (ADB): 2 OmM MOPS, pH 7.2, 25 mM B-glycerol phosphate, mM EGTA, 1 mM sodium orthovanadate, 1 mM dithiothreitol. Magnesium/ATP Cocktail: 500 AM cold ATP and 75 mM magnesium chloride in ADB.
Active Kinase: Human Active c—Raf: Use at 0.4 U per assay point. Non-active GST-MEK1: Use at 0.1, ug per assay point. Non-active GST-p42 MAP Kinase: Use at 1.0 tg per assay point.
TBST—Tris (50 mM, pH 7.5)-1H-, NaCl (150 mM), Tween-20 (0.05%) Superblock (Pierce) Anti—GST Ab (Pharmacia) Anti-Phospho MAPK (Sigma) Anti-Mouse Ab/Europium conjugate (Wallac)
Assay Procedure: First Stage: c—Raf Dependent Activation of GST-MEK and GST-MAPK Add […] of ADB per assay (i.e. per well of a 96 well plate) Add 10 ml of 0.5 mM cold ATP and 75 mM magnesium chloride in ADB. Add 2 ml of c—Raf (0.4 U/assay), in conjunction with 1.6 ml non-active MEKI (0.4 mg/assay). Add 4 ml of non-active GST-p42 MAP Kinase (1.0 mg/assay). Incubate for 60 minutes at 30° C. in a shaking incubator. Transfer this mixture to an anti—GST Ab coated 96 well plate (Nunc Immunosorb plates coated o/n with a—GST, then blocked with Pierce Superblock). Incubate for 60 minutes at 30° C. in a shaking incubator Wash 3×with TBST, add Anti-Phospho MAPK (Sigma) (1:3000)-1H-Incubate for 60 minutes at 30° C. in a shaking incubator Wash 3×with TBST, add Anti-Mouse Ab/Europium conjugate (Wallac) (1:500)-1H-Incubate for 60 minutes at 30° C. in a shaking incubator Wash 3×with TBST, Read plates in Wallac Victor model Plate Reader. Collect data analyze in Excel for single point and IC50 determinations.
IC50 determinations - done on compounds from single point assays with >80% inhibition. Typically Raf-1 assay is run at compound concentrations from 10 μM to 30 nM in half log dilutions. (% inhibition is determined for each compound concentration).

[2] = test system: human adenocarcinoma cell line CaCo-2; test: Cell Based Screen for Inhibitors of Raf Kinase, CaCo-2; settings: four days incubation, SRB
Experimental: (§1) Cell Based Screen for Inhibitors of Raf Kinase.
(§2) Cell Lines: Human adenocarcinoma cell line LoVo which is known to be growth inhibited by low nM concentrations of a reference standard inhibitor of Ras and human adenocarcinoma cell line CaCo-2, which is known to be growth resistant to the same reference compound. Cell Media: RPMI 1640 with 10% Fetal Bovine Serum supplemented with L-glutamine and Pennicilin/Streptomycin. Compounds: Supplied usually as a 10 mM stock in 100% DMSO. Normal Saline: 150 mM NaCl Trichloroacetic Acid (TCA): 50% (w/v) in water Sulforhodamine B (SRB): 0.4% (w/v) in 1% Acetic Acid Tris Base: 10 mM in water
(§3) Cells are plated at 2000 cells per well for cell line LoVo and 1500 cells for cell line CaCo-2 in 96 well plates. Cells are plated in media (200 μl) and allowed to adhere overnight at 37 ° C. At 24 hours post plating, compounds are added directly at a volume of 0.5 μl. For the qualitative screen (compounds screened at 25 μM) compound is added directly to cells. For the quantitative screen, compound is first diluted in DMSO to generate concentrations of compound or reference standard of: 1, 5, 10 and 25 μM. It is advisable to make the dilutions in an identical 96 well plate so that compounds may be added using a multichannel micropipettor set at 0.5 μl. The cells are then incubated for four days after which the media is removed using a 12 well manifold by first tipping the plate forward at a 45 degree angle and then inserting the manifold in an upright orientation to prevent the ti
(§4) of the manifold from disturbing cells at the bottom of the plate. 200 μl of normal saline is then added to each well using an 8 well multichannel pipettor, followed by the careful addition of 50 μl of 50% TCA. The plates are then incubated for 2 hours at 4 ° C, after which the supernatant is removed using the same technique as above and the plated washed twice with 200 ul water. The plates are then air dried and 50 μl of SRB stock solution is carefully added so that the entire bottom of each well is covered. This again may be used using an 8 well multichannel pipettor. The SRB is incubated with fixed cells for 15 minutes at room temperature after which the SRB is removed with the manifold as described above and the plates washed twice with 350 μl of 1% acetic acid per well each time.The plates are then air dried after which the bound SRB is released from protein by the addition of 200 µl of Tris base. Resolubilizing the SRB is aided by placing the plates on a rotator for 15-30 minutes. The absorbance of each well is determined at 550 or 562 nm using a microtiter plate reader.
(§5) Each compound or dilution thereof is performed in triplicate. Outliers are identified by visual inspection of the data. Each plate should have a “0” control (vehicle only). […] Quantitative Assay: A standard curve is constructed by plotting the concentration of compound against the average absorbance calculated at that concentration. A curve is plotted and the concentration at which the curve passes through the 50% the absorbance mark seen in the “0” control well is the IC50 calculated for that compound. Multiple entries for a given compound indicate that it was tested multiple times.

[3] = test system: Human adenocarcinoma cell line LoVo; test: Cell Based Screen for Inhibitors of Raf Kinase, LoVo; settings: four days incubation, SRB
Experimental: as §1, §2, §3, §4, §5

Compound | melting point | IC50 (Src) | GI50 [1] | IC50 (Raf1 (c-Raf)) | further results
COc1cc(Nc2c(C#N)cnc3cc(C#CCN4CCOCC4)ccc23)c(Cl)cc1Cl [Example 146, 4-(2 ,4-Dichloro-5-methoxyanilino)-7-[3-(4-morpholinyl)-1-propynyl]-3-quinolinecarbonitrile] | 190 to 191 °C | 22 nM | 6500 nM | – | –
COc1cc(Nc2c(C#N)cnc3cc(-c4cc5ccccc5s4)ccc23)c(Cl)cc1Cl [Example 120, 7-(1-benzothien-2-yl)-4-(2,4-dichloro-5-methoxyanilino)-3-quinolinecarbonitrile] | 269 to 270 °C | 170 nM | > 10000 nM | – | –
Cn1ccnc1Sc1ccc(Nc2c(C#N)cnc3cc(-c4ccc(N5CCCCC5)nc4)ccc23)cc1Cl [Example 211, 4-({3-Chloro-4-[(1-methyl-iH-imidazol-2-yl)sulfanyl]phenyl}amino)-7-[6-(1-piperidinyl)-3-pyridinyl]-3-quinolinecarbonitrile] | – | – | – | 6 nM | IC50 [2]: > 1000 nM; IC50 [3]: 5.3 nM
COc1cc(Nc2c(C#N)cnc3cc(-c4ccc(CN5CCC(O)CC5)s4)ccc23)c(Cl)cc1Cl [Example 89, 4-(2,4-dichloro-5-methoxyanilino)-7-{5-[(4-hydroxy-1-piperidinyl)methyl]-2-thienyl}-3-quinolinecarbonitrile] | – | 0.52 nM and 0.84 nM | 90 nM | – | –
COc1cc(Nc2c(C#N)cnc3cc(-c4ccc(CNCCc5ccccn5)o4)ccc23)c(Cl)cc1Cl [Example 74, 4-(2,4-Dichloro-5-methoxyanilino)-7-[5-({[2-(2-pyridinyl)ethyl]amino}methyl)-2-furyl]-3-quinolinecarbonitrile] | 130 to 135 °C | 40 nM | 1400 nM | – | –
4-[(2,4-Dichloro-5-methoxyphenyl) amino]-7-[4-(4-morpholinyl) phenyl]-3-quinolinecarbonitrile [Example 128] | – | 3.2 nM | 640 nM | – | –
4-{3-Chloro-4-[(1-methyl-1H-imidazol-2-yl) sulfanyl]anilino }-7-{5-[(4-ethyl-1-piperazinyl) methyl]-2-furyl }-3-quinolinecarbonitrile [Example 156] | – | – | – | 9 nM and 12 nM | IC50 [2]: 1000 nM; IC50 [3]: 5.6 nM
COc1cc(Nc2c(C#N)cnc3cc(-n4cccc4CN(C)C)ccc23)c(Cl)cc1Cl [Example 93] | 157 to 158 °C | 610 nM and 680 nM | > 10000 nM | – | –
Cn1ccnc1Sc1ccc(Nc2c(C#N)cnc3cc(-c4ccc(CN5CCCCC5)o4)ccc23)cc1Cl [Example 155, 4-{3-Chloro-4-[(1-methyl-1H-imidazol-2-yl)sulfanyl]anilino}-7-[5-(1-piperidinylmethyl)-2-furyl]-3-quinolinecarbonitrile] | 214 to 215 °C | – | – | 20 nM | –
Cn1ccnc1Sc1ccc(Nc2c(C#N)cnc3cc(-c4ccc(CN5CCOCC5)cn4)ccc23)cc1Cl [Example 187, 4-{3-Chloro-4-[(1-methyl-1H-inidazol-2-yl)sulfanyl]anilino}-7-[5-(4-morpholinylmethyl)-2-pyridinyl]-3-quinolinecarbonitrile] | 225 to 227 °C | – | – | – | IC50 [3]: 9 nM
COc1cc(Nc2c(C#N)cnc3cc(-c4ccc(-c5ccccc5)cc4)ccc23)c(Cl)cc1Cl [Example 165, 7-[1,1-Biphenyl]-4-yl-4-(2,4-dichloro-5-methoxyanilino)-3-quinolinecarbonitile] | – | – | > 10000 nM | – | ELISA c-src % inhibition (Src; at 10 nM): 28% at 10 nM
N#Cc1cnc2cc(-c3csc(CN4CCCCC4)c3)ccc2c1Nc1ccc(Sc2ccccc2)c(Cl)c1 [Example 462, 4-{[3-chloro-4-(phenylsulfanyl)phenyl]amino}-7-[5-(1-piperidinylmethyl)-3-thienyl]-3-quinolinecarbonitrile] | – | – | – | 50 nM | –
4-(2,4-Dichloro-5-methoxyanilino)-7-(3-formyl)-3-quinolinecarbonitrile [Example 112] | – | 36 nM | 7300 nM | – | –
(1-{4-[3-Cyano-4-(2,4-dichloro-5-methoxyanilino)-7-quinolinyl]benzyl }-4-piperidinyl) acetic acid [Example 100] | – | 0.57 nM | 340 nM and 400 nM | – | –
Cn1ccnc1Sc1ccc(Nc2c(C#N)cnc3cc(-c4csc(CN5CCOCC5)c4)ccc23)cc1Cl [Example 33, 4-{3-chloro-4-[(1-methyl-1H-imidazol-2-yl)sulfanyl]anilino}-7-[5-(4-morpholinylmethyl)-3-thienyl]-3-quinolinecarbonitrile] | 110 to 113 °C | – | – | 6 nM | IC50 ([3]; Homo sapiens, LoVo, 96 h): 6 nM
